According to patent publication US20260345553A1, “COMPOSITION FOR TREATING CANCER COMPRISING HISTONE DEACETYLASE INHIBITOR, AND ANTICANCER ADJUVANT FOR CANCER IMMUNOTHERAPY” (SAMSUNG LIFE PUBLIC WELFARE FOUNDATION, priority 2022, published 2026):

How the values were obtained:
PD-L1 [1] = assay: PD-L1 expression by HDAC6 inhibitor, MSI versus MSS colorectal cancer cell lines; format: cell-based; conditions: IC50 and half-IC50; MSI DLD-1, HCT116, MC38; MSS SW620, HT29, CT26; FIG. 15
Protocol: (§1) The IC50 values of the HDAC6 inhibitor (Nexturastat A) in three MSI colorectal cancer cell lines (DLD-1, HCT116, and MC38) and three MSS colorectal cancer cell lines (SW620, HT29, and CT26) were determined. The cells were then treated with the inhibitor at the IC50 and half-IC50 concentrations (concentration corresponding to ½ of the IC50 value), and the expression levels of the immune checkpoint proteins PD-L1 and B7H3 were measured.

PD-L1 [2] = assay: PD-L1 expression (RNA and protein) after HDAC inhibitor treatment in colorectal cell lines; format: cell-based, human, mouse; conditions: for PD-L1 expression in MSS compared with MSI colorectal cell lines: MSS compared with MSI colorectal cell lines (summary statement); for PD-L1 expression upon HDAC inhibitor treatment, MSS cell lines: SW620, LS513, and CT26, IC50 and ½ IC50, 48 hours, HDAC3 inhibitor compared with HDAC6 and HDAC8 (FIG. 2), HDAC8 inhibitor concentration-dependent (FIG. 6)
Protocol: (§2) The HDAC3 inhibitor experiment was conducted by harvesting cells 48 hours after the treatment at each inhibitor concentration and obtaining RNA and proteins. RGFP966 (S7229) purchased from SellekChem was used as an HDAC3 inhibitor. Specifically, SW620, LS513, DLD-1, CT26, and MC38 were individually cultured, and the experiments were conducted using the IC50 and ½ IC50 concentration on the basis of the previously determined IC50 concentration. RNA and protein samples were collected 48 hours after RGFP966 treatment. The RNA samples were isolated using the TRIzol, isopropanol, and chloroform, and the protein samples were collected by lysis with a lysis buffer (Roche, 4719956001). RNA was synthesized into cDNA using a cDNA synthesis kit (Bioneer, K-2044-B), and real-time PCR was performed using a method according to SYBR (Applied Biosystems, 4367659). Proteins were quantified using the Bradford assay (Bio-Rad, 50000006), and subjected to loading, transfer, blocking (3% skim milk; BD, 232100), primary antibody (24 h, 4 °C), and secondary antibody sequentially, thereby developing PD-L1.
The HDAC6 inhibitor experiment was conducted by the same method as in the HDAC3 inhibitor experiment of Experimental Example 3, and Nexturastat A HDAC6 selective inhibitor purchased from SellekChem was used as an HDAC6 inhibitor.
The HDAC8 inhibitor experiment was conducted by the same method as in the HDAC3 inhibitor experiment of Experimental Example 3, and PCI-34051 HDAC8 selective inhibitor purchased from SellekChem was used as an HDAC8 inhibitor.
The HDAC6 and HDAC8 inhibitor experiment was conducted by harvesting cells 48 hours after the treatment and then obtaining RNA and proteins.

CT26 tumor = assay: CD8 T cell-dependent CT26 tumor growth suppression with anti-CD8a pre-treatment; format: in vivo, BALB/C mice; conditions: concluded from anti-CD8a blocking
Protocol: To examine the hypothesis that an HDAC6 inhibitor suppresses CT26 tumor growth in a CD8 T cell-dependent manner, an experiment on the combination with anti-CD8a antibody was further conducted by pre-treatment with anti-CD8a antibody, which binds to CD8 T cells. The experiment was conducted by intraperitoneally administering an anti-CD8a antibody to animals from 3 days before tumor cell injection at 3-day intervals to inhibit CD8 T cells and administering an HDAC6 inhibitor and an anti-PD-L1 antibody.
Specifically, the experiment was conducted on a total of four groups: a control group, an anti-CD8a group, an HDAC6i (Next A)+anti-PD-L1 group, and an HDAC6i (Next A)+anti-PD-L1+anti-CD8a group. CT26 cells (1×10^6) for a cell line, Nexturastat A (SellekChem) as HDAC6i (HDAC6 inhibitor), #BE0101 (Bioxcell) as an anti-PD-L1 antibody, and #BE017 (Bioxcell) as an anti-CD8a antibody were used. BALB/C mice were used. In addition, 6 mice for the control group, 6 mice for the anti-CD8a group, 6 mice for the HDAC6i (Next A)+anti-PD-L1 group, and 8 mice for the HDAC6i (Next A)+anti-PD-L1+anti-CD8a group were used. […]

[3] = Body weight of mice, HDAC6 inhibitor animal experiment; format: in vivo, BALB/C mice; conditions: HDAC6i 20 mpk i.p. daily; FIG. 9D
Protocol: The animal experiment using an HDAC6 inhibitor was conducted using a total of three groups, a control group (control), an HDAC6i (Next A) group, and an HDAC6i (Next A)+anti-PD-L1 group. Nexturastat A (SellekChem) was used as HDAC6i (HDAC6 inhibitor), and #BE0101 (Bioxcell) was used as an anti-PD-L1 antibody. CT26 (1×10^6) cells and BALB/C mice were used. Three mice for the control group, three mice for the HDAC6i group, and four mice for the HDAC6i+anti-PD-L1 group were used.
• HDAC6i group: HDAC6i 20 mpk (mg/kg) intraperitoneally injected daily • HDAC6i+anti-PD-L1 group: HDAC6i 20 mpk intraperitoneally injected every day and anti-PD-L1 antibody 10 mpk intraperitoneally injected three times per week.

B7H3 = B7H3 expression by HDAC6 inhibitor, MSI versus MSS colorectal cancer cell lines; format: cell-based; conditions: IC50 and half-IC50; MSI DLD-1, HCT116, MC38; MSS SW620, HT29, CT26; FIG. 15
Protocol: as §1

PD-L1 [4] = assay: PD-L1 expression after HDAC3 inhibitor treatment in mouse cells; format: cell-based; conditions: IC50 and ½ IC50, 48 hours, FIG. 2
Protocol: as §2

SMILES	PD-L1 expression in MSS compared with MSI cell line (PD-L1 [1])	PD-L1 expression at the RNA and protein levels upon HDAC6 inhibitor treatment (PD-L1 [2]; MSS cell lines SW620, LS513, HT29, and CT26, depending on the concentration, 48 hours, FIG. 4)	PD-L1 expression in MSS compared with MSI colorectal cell lines (PD-L1 [2])	CD8 T cell dependence of CT26 tumor growth suppression (CT26 tumor)	body weight of the animals [3]	B7H3 expression in MSS compared with MSI cell line (B7H3)	PD-L1 expression upon HDAC3 inhibitor treatment, mouse cells (PD-L1 [4])	PD-L1 expression upon HDAC inhibitor treatment, MSS cell lines (PD-L1 [2])
CCCCN(Cc1ccc(C(=O)NO)cc1)C(=O)Nc1ccccc1 [Nexturastat A]	distinct increase tendencies	increase in PD-L1 expression at the RNA and protein levels	further up-regulated	suppressed CT26 tumor growth in a CD8 T cell-dependent manner	not reduced	distinct increase tendencies		
Nc1cc(F)ccc1NC(=O)/C=C/c1cnn(C/C=C/c2ccccc2)c1 [RGFP966]							decrease tendency	small increases
COc1ccc(Cn2ccc3ccc(C(=O)NO)cc32)cc1 [PCI-34051]			further up-regulated					increase in PD-L1 expression at the RNA and protein levels
